Results on 3 compounds are retold here after patent US8835506B2, “Methods and related compositions for the treatment of cancer” (STC.UNM, priority 2008, dated 2014).

“Also recorded” adds a separate entry of the source.

Series [1] relates to prostate cancer cells. Nature of the series: Cell death of human cancer cells cultured with AST. It counts as cell-based. The protocol: (§1) Cell Viability Assays: Two assays were used to determine cell viability; propidium iodide exclusion with flow cytometry and trypan blue exclusion with hemacytometry. Cells were treated with astemizole at the indicated concentrations for 24 to 96 hours prior to viability analysis. For propidium iodide cell viability determinations, cells were removed from the dishes with 0.05% trypsin. All cell culture medium was collected for the analysis in order to include any cells that may have released from the plate during the incubation period. Propidium iodide was added at a final concentration of 2 μg/ml and cells were analyzed on a Becton Dickinson FACScan flow cytometer. For trypan blue dye exclusion studies, all cell culture medium and cells removed by trypsinization were collected as above. An aliquot of these cells was re-suspended in 0.4% trypan blue. Both viable and non-viable cell counts were obtained by manual counting using a hemacytometer and light microscopy.

Series [2] relates to LC3 II band in CWRv22 cells. As to the kind of experiment: LC3 II band induction (autophagy marker). It counts as cell-based, human. The note with it: 10 μM AST, 6 hours.
For series [3], the system named is LNCaP human prostate cancer cells. Nature of the series: Cytotoxicity of AST in culture. The class given is cell-based. As to the method:
as §1

The subject of series [4] is LNCaP cells. As to the kind of experiment: HyperCyt high-throughput flow cytometry, side scatter as endpoint for intracellular granularity; cell death seen as adherent cells becoming non-adherent. The class given is cell-based, human. As to the method: HyperCyt and High-throughput Data Analysis: The HyperCyt® cytometry analysis system interfaces a flow cytometer and an autosampler. While the sampling probe moves from well to well, a peristaltic pump sequentially aspirates a small volume from each well. A bubble of air, created by the continuously running pump, separates samples from individual wells. Sample and bubble volumes are determined by the time the sampling probe is in a well (sip time) or in taking air while moving from well to well (up time). HyperCyt® sampling of a single 384-well plate is completed in less than 15 minutes. This system has been validated using cell-based high-throughput endpoint assays for ligand binding, surface antigen expression, and immunophenotyping.
The air-bubble separated samples, collected by HyperCyt®, are delivered continuously to the cytometer. The data accumulates as a single, time-resolved file with gaps corresponding to air-bubbles. Both forward and side light scattering properties of treated LNCaP cells were measured using a 488 nm laser. Time-resolved data were analyzed by proprietary software (IDLQuery) set to search for 384 separate data clusters. Data from negative (0.1% DMSO) replicate wells were pooled and used to set gates that define granularity in vehicle-treated LNCaP cells. […] A gate is set reflecting this distinction that is then applied to each data cluster. These values are automatically exported to a Microsoft Excel spreadsheet template that calculates percent side scatter shift in individual treated samples.
(§2) Microscopic and Flow Cytometric Scatter Analysis: Light microscopy images of prostate cancer cells in culture were collected using an Olympus IX70 inverted microscope and a 20× objective. Flow cytometric analysis of forward scatter (FSC) and side scatter (SSC) were preformed using the UNM Shared Flow Cytometry Resource on a Cytomation Mo Flo, an Epics Elite, a Becton Dickinson FACScan, or a Becton Dickinson FACS Calibur.
(Flow cytometry measures light scatter and fluorescence of single cells or particles in a stream.)

Series [5] concerns PC3 cells. As to the kind of experiment: Cell proliferation assay (CyQUANT NF). As to conditions: over a 4 day period. It counts as cell-based, human. The protocol:
(§3) Cell Proliferation Assay: To determine the number of proliferating cells after astemizole treatment, cells were seeded in 96-well tissue culture plates at 5,000 cells per well in 100 uL of DMEM/FCS. Two days after plating, cells were treated with astemizole at the indicated concentrations. Four days after treatment, cell proliferation was determined using the CyQUANT NF Cell Proliferation Assay Kit (Invitrogen, Carlsbad, Calif.) according to the kit instructions.

The subject of series [6] is DU145 cells. As to the kind of experiment: Cell proliferation assay (CyQUANT NF). The class given is cell-based, human. The note with it: FIG. 7, 4 days. As to the method: as §3
For series [7], the system named is LNCaP cells. Nature of the series: Cell proliferation assay (CyQUANT NF). The class given is cell-based, human. The note with it: FIG. 7, 4 days. The protocol: as §3
For series [8], the system named is LAPC4 cells. Nature of the series: Cell proliferation assay (CyQUANT NF). The class given is cell-based, human. As to conditions: FIG. 7, 4 days. As to the method: as §3
For series [9] the following is noted: rare cases, patients exceeding recommended doses; cited from earlier work.
The conditions of series [10]: cited from earlier work.
The conditions of series [11]: cited from earlier work. The source holds these as a separate data set.
The test system of series [12] is PC3 cells. Nature of the series: Hypodiploid population by propidium iodide incorporation and flow cytometry (apoptosis hallmarks). It counts as cell-based, human. The text has this: Multiple mechanisms could account for the cell death observed in cancer cells from treatment with AST. […] Thus, administering the agents identified above that induce intracellular granularity in cancer cells may produce cell death through an autophagic mechanism.

Series [13] deals with 22Rv1 prostate cancer cells. As to the kind of experiment: Viability by trypan blue exclusion, astemizole alone or with docetaxel or radiation. Also on record: key to action determined with combination therapy: &: Additive action determined with combination therapy.; #: Synergistic action determined with combination therapy. It counts as cell-based, human. The note with it: for level of cell killing in combination: 24 hours. As to the method:
as §1
Compounds according to the present invention may also function as radiosensitizers in addition to their anticancer activity. A study was performed showing prostate cancer cell killing actions of astemizole in combination with other therapeutic interventions. Astemizole alone produced a decrease in 22Rv1 prostate cancer cell viability with 8 μM 24 hours after treatment. […] This is true of the other agents which are described herein.

Series [14] relates to PC3 androgen-independent human prostate cancer cells. Nature of the series: Cell death by trypan blue uptake. It counts as cell-based. The protocol: as §1
Series [15] concerns skin cancer cells (SCC). Nature of the series: Cell death by trypan blue uptake and hemacytometry. As to conditions: AST up to 15 μM; listed as AST. The class given is cell-based. As to the method:
as §1

The test system of series [16] is LAPC4 human prostate cancer cells. Nature of the series: Cell death by trypan blue uptake and hemacytometry. The class given is cell-based. As to the method:
as §1

The subject of series [17] is CWRv22 human prostate cancer cells. Nature of the series: Cell death by trypan blue uptake and hemacytometry. The class given is cell-based. The protocol: as §1
The conditions of series [18]: in vivo; cited from earlier work.
The subject of series [19] is PC3 human prostate cancer cells. As to the kind of experiment: Light microscopy of intracellular granularity. The note with it: FIG. 3. The class given is cell-based.
Description: as §2

Series [20] has as its system advanced prostate cancer. As to conditions: advanced prostate cancer patients, on average; cited from earlier work.

Regarding “1-[(4-fluorophenyl)methyl]-N-[1-[2-(4-ethoxyphenyl)ethyl]-4-piperidyl]benzoimidazol-2-amine [Astemizole]”, in series [1], the “concentration at which cells undergo rapid cell death” value is on record as “above 5 μM”. Moreover, the entries for the “LC3 II band associated with autophagic pathways” value in series [2] and in [2] (listed as AST) were “induction of an LC3 II band” and “increase in the LC3 II band”, respectively. In addition, the “cell killing by AST treatment” value in series [3], in [16] and in series [17] was “dose-response to cell killing” throughout. In [4] (FIG. 2, prostate cancer cells), the “cancer cell intracellular granularity by SSC flow cytometry” value is on record as “significantly increase”. For the same compound, the “dose at which cell death is seen” value in series [4] (FIG. 4 dose-response) amounted to 10 µM. For the same compound, in [4] (FIG. 4 dose-response), the “dose range of AST-induced increases in intracellular granularity” value is given as “up to 3 μM”. The “concentration inhibiting cell growth” value in series [5] was at least 1 µM. Further, the “prostate cancer cell growth” value in series [6], in [7] and in series [8] was “significant reduction” each time. The “serious life-threatening cardiovascular adverse events” value in series [9] was “QT-prolongation, torsades de pointes, and other ventricular arrhythmias”. For the same compound, in [10], the protein binding entry was “around 96%”. In series [11] (from the gastrointestinal tract), the absorption entry is “rapidly absorbed”. Moreover, the excretion result in series [11] (man) was “excreted as metabolites chiefly in the feces”. The “half-life of the active ingredient” value in series [11] (man) is recorded as “approximately 1 day”. In addition, the metabolism result in [11] (man) is recorded as “extensively metabolized”. Besides, the “hallmarks of apoptotic cell death (hypodiploid population)” value in series [12] was “does not produce hallmarks of apoptotic cell death”. Besides, the “action determined with combination therapy” value was “&” in [13] (2 μM astemizole + 10 nM docetaxel); “&” in series [13] (2 μM astemizole + 10 Gy radiation); “&” in series [13] (4 μM astemizole + 10 nM docetaxel); “#” in [13] (4 μM astemizole + 10 Gy radiation); “&” in [13] (8 μM astemizole + 10 nM docetaxel); “#” in series [13] (8 μM astemizole + 10 Gy radiation). Besides, the “% Viability, Mean (SD)” value is given as 71.3% in series [13] (2 μM astemizole + 10 nM docetaxel, 24 h, n = 3); 63.5% in series [13] (2 μM astemizole + 10 Gy radiation, 24 h, n = 3); 88.2 (4.9) % in series [13] (2 μM astemizole alone, 24 h, n = 3); 74.4% in series [13] (4 μM astemizole + 10 nM docetaxel, 24 h, n = 3); 57.4% in series [13] (4 μM astemizole + 10 Gy radiation, 24 h, n = 3); 90.6 (1.2) % in [13] (4 μM astemizole alone, 24 h, n = 3). The “% Viability, Mean (SD)” value is 49.7% in series [13] (8 μM astemizole + 10 nM docetaxel, 24 h, n = 3); 22.2% in [13] (8 μM astemizole + 10 Gy radiation, 24 h, n = 3); 64.3 (8.1) % in series [13] (8 μM astemizole alone, 24 h, n = 3). In addition, the “cell viability, astemizole alone” value in series [13] (8 μM, 24 hours after treatment) was “decrease”. The “level of cell killing in combination” value in series [13] (2, 4 and 8 μM astemizole with 10 nM docetaxel) was “additive levels of cell killing”; in [13] (2, 4 and 8 μM astemizole with 10 gray radiation), “synergistic levels of cell killing”. The “time to cell death after treatment” value in series [14] is at most 24 h. For the same compound, in [14] (10 μM AST, 48 hours), the cell death result is listed as “greater than 25%”. Moreover, the cells dead in series [14] (15 μM AST, 48 hours) is on record as about 100%; in [16] (6 μM AST, within 24 hours), 80%; in series [17] (6 μM AST, within 24 hours), 80%. Also, the “cell death by AST treatment” value in series [15] is “resistant to cell death; also recorded: not killed”. Further, the “crossing of the blood-brain barrier” value in series [18] is on record as “does not cross the blood-brain barrier”. The “intracellular granularity observed by light microscopy” value in series [19] is “increase in intracellular granularity”.

Regarding `CC(=O)O[C@@]12CO[C@@H]1C[C@H](O)[C@@]1(C)C(=O)[C@H](O)C3=C(C)[C@@H](OC(=O)[C@H](O)[C@@H](NC(=O)OC(C)(C)C)c4ccccc4)C[C@@](O)([C@@H](OC(=O)c4ccccc4)[C@H]21)C3(C)C` [Taxotere], the prolongation of life in series [20] is 2.5 months.

Consider `CC(=O)O[C@@]12CO[C@@H]1C[C@H](O)[C@@]1(C)C(=O)[C@H](O)C3=C(C)[C@@H](OC(=O)[C@H](O)[C@@H](NC(=O)OC(C)(C)C)c4ccccc4)C[C@@](O)([C@@H](OC(=O)c4ccccc4)[C@H]21)C3(C)C` [docetaxel], for which the viability (in general, the share of living cells, or the viability signal relative to a control) at 0.01 µM in series [13] (Homo sapiens, 22Rv1, 10 nM docetaxel alone (0 μM astemizole), 24 h, n = 3, read-out: % Viability, Mean (SD)) was 80.7%.
